What all share (assay): SelectScreen Kinase Profiling, single point inhibition and IC50 for off-target kinases
Holding throughout (format): biochemical

Test [1] deals with T1, off-target kinases (Homo sapiens, UniProt P29320).
T1 sequence (P29320 21-983): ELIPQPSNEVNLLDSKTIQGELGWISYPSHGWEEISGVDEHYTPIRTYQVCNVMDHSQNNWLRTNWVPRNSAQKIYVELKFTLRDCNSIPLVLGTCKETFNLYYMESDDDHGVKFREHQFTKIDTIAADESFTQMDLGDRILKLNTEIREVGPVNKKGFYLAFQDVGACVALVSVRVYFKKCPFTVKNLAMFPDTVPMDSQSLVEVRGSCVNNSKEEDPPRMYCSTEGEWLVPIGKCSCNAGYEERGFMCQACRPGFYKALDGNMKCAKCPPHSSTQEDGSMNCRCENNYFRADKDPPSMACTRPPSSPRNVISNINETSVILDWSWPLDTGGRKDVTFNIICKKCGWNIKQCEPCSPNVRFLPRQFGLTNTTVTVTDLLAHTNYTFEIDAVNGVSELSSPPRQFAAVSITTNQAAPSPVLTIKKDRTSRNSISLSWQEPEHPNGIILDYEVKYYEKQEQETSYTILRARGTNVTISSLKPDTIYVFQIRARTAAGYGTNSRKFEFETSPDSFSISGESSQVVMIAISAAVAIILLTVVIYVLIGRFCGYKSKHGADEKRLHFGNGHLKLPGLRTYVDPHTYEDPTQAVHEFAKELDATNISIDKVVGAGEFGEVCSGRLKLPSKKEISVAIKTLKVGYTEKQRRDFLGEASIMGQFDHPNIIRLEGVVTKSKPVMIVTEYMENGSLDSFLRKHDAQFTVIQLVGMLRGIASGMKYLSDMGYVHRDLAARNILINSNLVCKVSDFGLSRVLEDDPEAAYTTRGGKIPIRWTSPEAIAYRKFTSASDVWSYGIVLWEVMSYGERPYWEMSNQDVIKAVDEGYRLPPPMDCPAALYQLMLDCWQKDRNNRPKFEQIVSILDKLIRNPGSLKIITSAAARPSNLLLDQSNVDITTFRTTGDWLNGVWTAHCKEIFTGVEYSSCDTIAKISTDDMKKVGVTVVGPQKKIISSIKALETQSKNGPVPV
Particulars: EPHA3, LanthaScreen Binding.

Test [2] concerns the target off-target kinases (Homo sapiens, UniProt Q9P1W9). Particulars: PIM2, ZLYTE, ATP Km app.
Test [3] deals with T2, off-target kinases (Homo sapiens, UniProt P36897).
T2 sequence (P36897 34-503): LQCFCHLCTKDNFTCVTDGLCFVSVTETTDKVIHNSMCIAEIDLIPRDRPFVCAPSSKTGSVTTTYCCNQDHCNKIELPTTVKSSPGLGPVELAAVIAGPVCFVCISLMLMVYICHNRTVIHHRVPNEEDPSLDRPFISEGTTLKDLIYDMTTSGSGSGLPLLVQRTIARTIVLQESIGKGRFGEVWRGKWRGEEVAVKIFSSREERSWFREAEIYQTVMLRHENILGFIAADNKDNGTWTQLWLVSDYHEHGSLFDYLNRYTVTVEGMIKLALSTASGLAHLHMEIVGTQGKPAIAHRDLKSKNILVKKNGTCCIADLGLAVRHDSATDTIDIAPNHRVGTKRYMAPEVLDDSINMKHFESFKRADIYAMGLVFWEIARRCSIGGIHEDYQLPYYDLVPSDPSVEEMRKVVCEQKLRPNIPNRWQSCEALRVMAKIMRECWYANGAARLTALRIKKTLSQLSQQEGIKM
Conditions: TGFBR1 (ALK5), LanthaScreen Binding.

The target of test [4] is off-target kinases (Homo sapiens, UniProt P00533, T790M). Conditions: EGFR (ErbB1) T790M, mutant y, ZLYTE, ATP Km app.
Test [5] deals with off-target kinases (Homo sapiens, UniProt Q02763). Conditions: TEK (Tie2), ZLYTE, ATP Km app.

The results in this text go back to patent publication US11572590B2, “Methods for evaluating tumor cell spheroids using 3D microfluidic cell culture device” (Dana-Farber Cancer Institute, Inc., priority 2017, dated 2023).

Like-named read-outs stand apart in the source and are kept apart here.

Sequence of off-target kinases (Homo sapiens, UniProt P00533, T790M) (P00533 25-1210 T790M): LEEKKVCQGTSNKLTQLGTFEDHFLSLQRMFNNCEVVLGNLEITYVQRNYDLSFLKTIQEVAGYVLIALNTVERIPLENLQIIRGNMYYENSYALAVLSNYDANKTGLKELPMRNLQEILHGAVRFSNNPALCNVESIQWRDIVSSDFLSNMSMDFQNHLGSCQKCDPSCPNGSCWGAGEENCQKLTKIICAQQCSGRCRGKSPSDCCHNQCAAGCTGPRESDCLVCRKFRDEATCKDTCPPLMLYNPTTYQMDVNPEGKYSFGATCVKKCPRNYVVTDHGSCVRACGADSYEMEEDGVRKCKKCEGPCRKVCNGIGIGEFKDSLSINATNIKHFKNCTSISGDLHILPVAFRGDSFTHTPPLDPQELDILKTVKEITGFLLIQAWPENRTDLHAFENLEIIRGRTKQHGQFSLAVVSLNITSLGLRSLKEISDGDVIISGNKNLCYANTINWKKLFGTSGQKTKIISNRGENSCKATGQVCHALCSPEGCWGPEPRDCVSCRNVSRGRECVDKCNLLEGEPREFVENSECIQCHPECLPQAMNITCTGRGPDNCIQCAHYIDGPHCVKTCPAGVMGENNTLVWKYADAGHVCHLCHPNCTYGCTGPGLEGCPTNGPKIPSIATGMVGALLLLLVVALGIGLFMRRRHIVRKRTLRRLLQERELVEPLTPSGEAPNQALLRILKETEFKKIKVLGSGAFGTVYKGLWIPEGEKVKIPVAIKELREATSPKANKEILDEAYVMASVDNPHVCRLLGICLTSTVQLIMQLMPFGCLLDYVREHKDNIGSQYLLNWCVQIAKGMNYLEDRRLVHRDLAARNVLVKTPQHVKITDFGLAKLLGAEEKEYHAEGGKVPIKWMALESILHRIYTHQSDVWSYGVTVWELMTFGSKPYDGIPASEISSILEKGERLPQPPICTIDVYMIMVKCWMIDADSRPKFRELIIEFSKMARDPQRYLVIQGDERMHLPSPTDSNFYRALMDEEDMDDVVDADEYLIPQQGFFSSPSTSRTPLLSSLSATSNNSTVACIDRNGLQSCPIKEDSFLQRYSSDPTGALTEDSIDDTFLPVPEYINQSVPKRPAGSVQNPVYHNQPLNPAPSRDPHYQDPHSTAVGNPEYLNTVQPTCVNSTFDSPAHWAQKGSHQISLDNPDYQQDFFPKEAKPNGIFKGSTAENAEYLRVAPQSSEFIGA
Sequence of off-target kinases (Homo sapiens, UniProt Q9P1W9) (Q9P1W9 whole entry): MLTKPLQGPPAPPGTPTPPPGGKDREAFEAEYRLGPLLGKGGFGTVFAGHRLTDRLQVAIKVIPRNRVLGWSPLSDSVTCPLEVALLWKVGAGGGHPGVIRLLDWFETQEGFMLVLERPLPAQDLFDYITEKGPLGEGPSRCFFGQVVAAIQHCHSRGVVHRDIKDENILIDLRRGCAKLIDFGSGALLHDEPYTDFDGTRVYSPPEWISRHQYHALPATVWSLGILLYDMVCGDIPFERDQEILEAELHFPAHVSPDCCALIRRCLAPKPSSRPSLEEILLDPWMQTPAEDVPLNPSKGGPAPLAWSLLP
Sequence of off-target kinases (Homo sapiens, UniProt Q02763) (Q02763 23-1124): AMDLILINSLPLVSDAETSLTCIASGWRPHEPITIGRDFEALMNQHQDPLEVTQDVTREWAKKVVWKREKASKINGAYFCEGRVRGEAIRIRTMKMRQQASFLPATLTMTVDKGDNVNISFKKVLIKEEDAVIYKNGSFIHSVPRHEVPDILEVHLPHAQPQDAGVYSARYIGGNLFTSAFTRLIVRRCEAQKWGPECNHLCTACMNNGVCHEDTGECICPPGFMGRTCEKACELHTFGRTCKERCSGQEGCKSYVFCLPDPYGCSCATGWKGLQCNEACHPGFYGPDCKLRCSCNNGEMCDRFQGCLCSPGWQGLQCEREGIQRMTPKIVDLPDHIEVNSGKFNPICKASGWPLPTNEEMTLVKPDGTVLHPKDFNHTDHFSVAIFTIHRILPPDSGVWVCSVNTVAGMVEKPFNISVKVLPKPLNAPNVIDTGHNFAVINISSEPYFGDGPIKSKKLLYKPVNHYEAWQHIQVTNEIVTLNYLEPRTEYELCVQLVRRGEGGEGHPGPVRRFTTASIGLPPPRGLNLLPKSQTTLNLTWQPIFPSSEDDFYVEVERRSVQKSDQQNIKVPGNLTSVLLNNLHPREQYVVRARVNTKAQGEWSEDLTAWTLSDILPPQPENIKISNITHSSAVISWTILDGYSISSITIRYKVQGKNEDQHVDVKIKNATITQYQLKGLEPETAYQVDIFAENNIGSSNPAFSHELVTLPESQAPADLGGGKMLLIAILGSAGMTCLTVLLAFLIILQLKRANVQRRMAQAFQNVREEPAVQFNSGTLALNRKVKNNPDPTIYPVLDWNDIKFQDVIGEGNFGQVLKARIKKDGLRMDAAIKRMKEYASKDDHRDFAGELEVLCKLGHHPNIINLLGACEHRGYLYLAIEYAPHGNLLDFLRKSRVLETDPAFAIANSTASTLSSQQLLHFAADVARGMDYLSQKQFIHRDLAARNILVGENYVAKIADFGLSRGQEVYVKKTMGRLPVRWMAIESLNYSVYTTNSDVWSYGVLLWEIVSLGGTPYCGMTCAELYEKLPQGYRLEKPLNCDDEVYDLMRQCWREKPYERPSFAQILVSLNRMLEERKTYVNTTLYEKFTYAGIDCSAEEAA

With `N#Cc1cc(-c2ncnc(Nc3ccc(N4CCN(C5COC5)CC4)cc3)n2)ccc1OC1CCOCC1` [Compound 1, 5-(4-((4-(4-(oxetan-3-yl)piperazin-1-yl)phenyl)amino)-1,3,5-triazin-2-yl)-2-((tetrahydro-2H-pyran-4-yl)oxy)benzonitrile], the inhibition on off-target kinases [1] (read-out: % Inhibition 1) was 6%; on off-target kinases [1] (read-out: % Inhibition 2), 3%; at off-target kinases [1] (read-out: % Inhibition Avg) it was 4%; on off-target kinases [2] (read-out: % Inhibition 1), -1%; at off-target kinases [2] (read-out: % Inhibition 2), 7%; on off-target kinases [2] (read-out: % Inhibition Avg), 3%. In addition, the inhibition at off-target kinases [3] (read-out: % Inhibition 1) worked out at 56%; at off-target kinases [3] (read-out: % Inhibition 2), 58%; at off-target kinases [3] (read-out: % Inhibition Avg), 57%; on off-target kinases [4] (read-out: % Inhibition 1), 25%; on off-target kinases [4] (read-out: % Inhibition 2), 25%; at off-target kinases [4] (read-out: % Inhibition Avg) it was 25%. The figures for the inhibition on off-target kinases [5] (read-out: % Inhibition 1), at off-target kinases [5] (read-out: % Inhibition 2) and on off-target kinases [5] (read-out: % Inhibition Avg) were 11%, 17% and 14%, respectively.
